Test results taken from paper PMC6210068 (ACS Omega, 2018).

What was measured:
5HT2B serotonin receptor = 5HT2B serotonin receptor (Homo sapiens, UniProt P41595); assay: PDSP off-target binding, 5HT2B
hA3AR = target: T1, hA3AR (Homo sapiens, UniProt P0DMS8); assay: A3AR binding
T1 sequence (P0DMS8 1-318): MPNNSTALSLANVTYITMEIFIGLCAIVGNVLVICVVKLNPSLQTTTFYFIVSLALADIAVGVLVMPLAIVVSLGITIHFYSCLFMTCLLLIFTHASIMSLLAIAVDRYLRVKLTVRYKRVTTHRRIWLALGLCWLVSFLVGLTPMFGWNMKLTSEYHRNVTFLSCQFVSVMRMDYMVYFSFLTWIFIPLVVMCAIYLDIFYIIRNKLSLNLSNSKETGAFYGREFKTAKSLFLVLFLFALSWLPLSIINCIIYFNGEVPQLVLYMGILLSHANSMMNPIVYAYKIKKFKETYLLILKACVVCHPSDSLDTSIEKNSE

5HT2C serotonin receptor = target: T2, 5HT2C serotonin receptor (Homo sapiens, UniProt P28335); assay: PDSP off-target binding, 5HT2C
T2 sequence (P28335 33-458): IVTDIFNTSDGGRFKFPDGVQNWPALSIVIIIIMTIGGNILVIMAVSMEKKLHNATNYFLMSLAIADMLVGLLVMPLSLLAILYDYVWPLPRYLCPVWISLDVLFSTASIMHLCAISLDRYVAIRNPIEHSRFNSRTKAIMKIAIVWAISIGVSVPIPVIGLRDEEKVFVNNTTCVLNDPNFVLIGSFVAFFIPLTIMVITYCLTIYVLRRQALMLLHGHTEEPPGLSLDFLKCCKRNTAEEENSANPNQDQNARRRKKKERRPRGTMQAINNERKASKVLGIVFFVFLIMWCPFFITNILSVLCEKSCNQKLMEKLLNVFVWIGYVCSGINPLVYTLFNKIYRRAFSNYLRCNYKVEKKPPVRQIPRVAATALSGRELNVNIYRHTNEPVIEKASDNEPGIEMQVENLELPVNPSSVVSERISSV

MOR = MOR (Homo sapiens, UniProt P35372); assay: biochemical; format: binding
Sequence of MOR (P35372 whole entry): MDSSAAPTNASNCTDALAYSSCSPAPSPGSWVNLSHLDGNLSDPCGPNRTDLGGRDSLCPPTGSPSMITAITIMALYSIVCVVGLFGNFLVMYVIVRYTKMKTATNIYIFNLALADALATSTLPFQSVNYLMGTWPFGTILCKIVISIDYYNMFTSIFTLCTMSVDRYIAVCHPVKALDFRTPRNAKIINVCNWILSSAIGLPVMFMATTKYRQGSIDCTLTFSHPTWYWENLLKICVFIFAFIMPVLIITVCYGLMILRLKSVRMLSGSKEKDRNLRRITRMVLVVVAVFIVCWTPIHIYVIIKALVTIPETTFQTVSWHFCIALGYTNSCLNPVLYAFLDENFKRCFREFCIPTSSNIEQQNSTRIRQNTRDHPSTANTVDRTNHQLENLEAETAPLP

KOR [1] = target: T3, KOR (Homo sapiens, UniProt P41145); assay: biochemical; format: binding; conditions: for Ki: KOR, [3H]U69593, mean ± SEM, N = 2–4
T3 sequence (P41145 whole entry): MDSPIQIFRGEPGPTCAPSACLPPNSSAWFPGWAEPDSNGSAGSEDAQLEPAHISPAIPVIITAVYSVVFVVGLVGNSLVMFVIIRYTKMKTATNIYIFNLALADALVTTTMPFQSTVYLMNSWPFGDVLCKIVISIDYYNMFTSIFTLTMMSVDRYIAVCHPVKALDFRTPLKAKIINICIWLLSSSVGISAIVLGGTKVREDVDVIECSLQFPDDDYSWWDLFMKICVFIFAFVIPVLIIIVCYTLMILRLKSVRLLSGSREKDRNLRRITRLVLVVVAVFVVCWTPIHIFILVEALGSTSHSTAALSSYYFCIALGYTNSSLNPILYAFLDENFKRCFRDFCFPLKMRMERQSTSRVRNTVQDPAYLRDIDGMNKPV

muscarinic M5 receptor = muscarinic M5 receptor (Homo sapiens, UniProt P08912); assay: PDSP off-target binding, muscarinic M5
Sequence of muscarinic M5 receptor (P08912 whole entry): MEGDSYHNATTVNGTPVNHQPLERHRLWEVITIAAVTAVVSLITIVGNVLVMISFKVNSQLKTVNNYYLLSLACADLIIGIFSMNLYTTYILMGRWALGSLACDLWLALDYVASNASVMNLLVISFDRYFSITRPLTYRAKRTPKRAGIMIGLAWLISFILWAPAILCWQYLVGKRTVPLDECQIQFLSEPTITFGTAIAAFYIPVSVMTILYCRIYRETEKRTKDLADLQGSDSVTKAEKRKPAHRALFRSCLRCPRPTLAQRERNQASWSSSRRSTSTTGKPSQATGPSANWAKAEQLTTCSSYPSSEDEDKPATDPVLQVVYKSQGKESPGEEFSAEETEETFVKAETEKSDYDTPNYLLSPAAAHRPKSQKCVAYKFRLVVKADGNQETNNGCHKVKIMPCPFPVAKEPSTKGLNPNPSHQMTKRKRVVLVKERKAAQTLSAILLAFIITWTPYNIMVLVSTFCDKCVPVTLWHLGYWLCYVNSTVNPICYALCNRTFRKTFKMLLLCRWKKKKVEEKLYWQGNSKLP

hDAT = hDAT (Homo sapiens, UniProt Q01959); assay: Radioligand binding at DAT; conditions: 10 μM; [3H]WIN35428; negative = enhanced radioligand binding
Sequence of hDAT (Q01959 whole entry): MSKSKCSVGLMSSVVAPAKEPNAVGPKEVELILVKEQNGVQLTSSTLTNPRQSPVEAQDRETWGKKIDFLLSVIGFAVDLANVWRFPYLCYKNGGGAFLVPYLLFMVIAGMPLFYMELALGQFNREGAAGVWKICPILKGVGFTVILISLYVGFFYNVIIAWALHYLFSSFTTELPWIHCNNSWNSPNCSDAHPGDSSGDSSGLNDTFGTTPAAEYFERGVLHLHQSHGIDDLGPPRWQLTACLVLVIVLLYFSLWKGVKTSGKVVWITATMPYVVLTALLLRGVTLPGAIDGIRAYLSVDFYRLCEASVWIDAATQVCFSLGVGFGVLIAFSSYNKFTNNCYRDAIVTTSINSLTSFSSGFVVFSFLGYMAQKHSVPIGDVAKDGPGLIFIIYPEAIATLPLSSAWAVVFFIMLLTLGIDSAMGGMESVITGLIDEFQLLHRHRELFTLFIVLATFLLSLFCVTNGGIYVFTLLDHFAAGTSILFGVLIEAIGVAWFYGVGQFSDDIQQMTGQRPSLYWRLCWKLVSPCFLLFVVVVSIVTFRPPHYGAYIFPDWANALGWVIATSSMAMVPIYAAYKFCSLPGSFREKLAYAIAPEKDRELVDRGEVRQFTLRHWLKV

rat kidney TSPO = rat kidney TSPO (Rattus norvegicus, UniProt P16257); assay: Radioligand binding at TSPO; conditions: TSPO, Ki, rat TSPO; [3H]PK11195
Sequence of rat kidney TSPO (P16257 whole entry): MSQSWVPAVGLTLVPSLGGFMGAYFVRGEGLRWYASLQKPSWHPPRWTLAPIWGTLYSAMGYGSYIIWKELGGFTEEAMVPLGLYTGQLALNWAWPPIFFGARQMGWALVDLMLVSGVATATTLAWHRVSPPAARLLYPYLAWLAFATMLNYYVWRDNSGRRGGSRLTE

5HT2A serotonin receptor = 5HT2A serotonin receptor (Homo sapiens, UniProt P28223); assay: PDSP off-target binding, 5HT2A
Sequence of 5HT2A serotonin receptor (P28223 whole entry): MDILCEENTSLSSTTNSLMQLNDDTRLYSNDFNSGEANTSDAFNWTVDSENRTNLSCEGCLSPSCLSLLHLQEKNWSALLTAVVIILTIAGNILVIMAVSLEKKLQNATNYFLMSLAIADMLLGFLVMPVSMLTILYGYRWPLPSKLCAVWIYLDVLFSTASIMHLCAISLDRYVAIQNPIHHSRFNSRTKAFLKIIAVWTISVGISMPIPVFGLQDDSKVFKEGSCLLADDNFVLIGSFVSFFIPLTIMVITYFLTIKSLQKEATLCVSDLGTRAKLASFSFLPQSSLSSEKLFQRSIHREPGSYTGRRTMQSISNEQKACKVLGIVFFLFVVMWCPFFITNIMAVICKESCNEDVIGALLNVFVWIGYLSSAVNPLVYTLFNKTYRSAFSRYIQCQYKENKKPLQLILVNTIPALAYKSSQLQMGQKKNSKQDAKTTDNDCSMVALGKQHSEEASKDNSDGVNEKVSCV

DOR = DOR (Homo sapiens, UniProt P41143); assay: Radioligand binding at DOR
Sequence of DOR (P41143 whole entry): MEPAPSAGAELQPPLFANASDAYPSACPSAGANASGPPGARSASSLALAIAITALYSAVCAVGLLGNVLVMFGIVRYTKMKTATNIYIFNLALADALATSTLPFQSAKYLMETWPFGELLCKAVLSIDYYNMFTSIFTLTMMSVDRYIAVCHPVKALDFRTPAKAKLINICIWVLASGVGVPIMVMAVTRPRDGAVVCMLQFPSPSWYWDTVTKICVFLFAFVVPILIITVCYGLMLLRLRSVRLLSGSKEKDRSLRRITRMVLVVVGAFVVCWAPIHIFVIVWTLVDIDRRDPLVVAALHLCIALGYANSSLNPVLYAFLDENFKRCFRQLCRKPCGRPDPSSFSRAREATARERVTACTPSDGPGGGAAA

KOR [2] = target: T3, KOR; format: cell-based
KOR [3] = target: T3, KOR; assay: cell-based; format: cell-based
hA2AAR = hA2AAR (Homo sapiens, UniProt P29274); assay: hA2AAR binding; conditions: read-out: binding inhibition at hA2AAR (% at 10 μM)
Sequence of hA2AAR (P29274 whole entry): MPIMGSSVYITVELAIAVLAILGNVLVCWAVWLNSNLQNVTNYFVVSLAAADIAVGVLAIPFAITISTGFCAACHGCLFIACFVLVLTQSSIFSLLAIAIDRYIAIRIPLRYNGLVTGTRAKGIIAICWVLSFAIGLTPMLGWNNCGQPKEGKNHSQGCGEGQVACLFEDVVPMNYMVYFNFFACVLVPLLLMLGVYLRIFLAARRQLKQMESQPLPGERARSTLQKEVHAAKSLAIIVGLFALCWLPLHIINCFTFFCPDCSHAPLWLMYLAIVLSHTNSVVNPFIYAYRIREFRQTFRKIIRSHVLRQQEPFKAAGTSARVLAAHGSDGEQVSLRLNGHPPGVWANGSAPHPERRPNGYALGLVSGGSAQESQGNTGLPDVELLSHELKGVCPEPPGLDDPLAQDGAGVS

[4] = target: human α2C adrenergic receptor (Homo sapiens, UniProt P18825); assay: PDSP off-target binding, α2C adrenergic
Sequence of human α2C adrenergic receptor (P18825 whole entry): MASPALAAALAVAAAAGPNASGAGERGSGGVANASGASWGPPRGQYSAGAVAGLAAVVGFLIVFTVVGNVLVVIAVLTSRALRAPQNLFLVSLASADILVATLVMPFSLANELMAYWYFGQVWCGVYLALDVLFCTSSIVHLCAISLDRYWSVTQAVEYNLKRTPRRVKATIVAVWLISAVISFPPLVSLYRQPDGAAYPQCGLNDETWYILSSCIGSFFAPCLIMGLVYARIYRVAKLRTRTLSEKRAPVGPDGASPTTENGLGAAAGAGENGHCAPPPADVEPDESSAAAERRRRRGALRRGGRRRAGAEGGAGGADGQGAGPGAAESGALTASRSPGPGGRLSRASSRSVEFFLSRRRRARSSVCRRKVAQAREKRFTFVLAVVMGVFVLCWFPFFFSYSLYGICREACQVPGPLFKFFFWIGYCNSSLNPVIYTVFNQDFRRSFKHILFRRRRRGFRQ

hA1AR = target: T4, hA1AR (Homo sapiens, UniProt P30542); assay: hA1AR binding
T4 sequence (P30542 1-326): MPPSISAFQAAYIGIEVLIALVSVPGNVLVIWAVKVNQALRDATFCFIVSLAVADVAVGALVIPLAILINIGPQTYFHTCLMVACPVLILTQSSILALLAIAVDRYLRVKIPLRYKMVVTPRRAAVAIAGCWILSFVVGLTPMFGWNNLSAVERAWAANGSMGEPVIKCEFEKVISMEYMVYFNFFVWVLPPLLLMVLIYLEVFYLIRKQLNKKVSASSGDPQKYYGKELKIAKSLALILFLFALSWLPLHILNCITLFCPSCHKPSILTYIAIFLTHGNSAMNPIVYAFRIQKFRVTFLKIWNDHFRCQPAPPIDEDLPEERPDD

muscarinic M1 receptor = muscarinic M1 receptor (Homo sapiens, UniProt P11229); assay: PDSP off-target binding, muscarinic M1
rat σ2 receptor = target: T5, rat σ2 receptor (Rattus norvegicus, UniProt Q5U3Y7); assay: PDSP binding, σ2 receptor
T5 sequence (Q5U3Y7 1-176): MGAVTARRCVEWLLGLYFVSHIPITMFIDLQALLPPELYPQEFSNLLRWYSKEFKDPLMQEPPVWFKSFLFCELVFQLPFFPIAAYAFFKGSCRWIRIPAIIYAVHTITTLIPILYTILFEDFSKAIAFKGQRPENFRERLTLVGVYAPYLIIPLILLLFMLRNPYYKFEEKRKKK

β3 adrenergic receptor = β3 adrenergic receptor (Homo sapiens, UniProt P13945); assay: PDSP off-target binding, β3 adrenergic
Sequence of β3 adrenergic receptor (P13945 whole entry): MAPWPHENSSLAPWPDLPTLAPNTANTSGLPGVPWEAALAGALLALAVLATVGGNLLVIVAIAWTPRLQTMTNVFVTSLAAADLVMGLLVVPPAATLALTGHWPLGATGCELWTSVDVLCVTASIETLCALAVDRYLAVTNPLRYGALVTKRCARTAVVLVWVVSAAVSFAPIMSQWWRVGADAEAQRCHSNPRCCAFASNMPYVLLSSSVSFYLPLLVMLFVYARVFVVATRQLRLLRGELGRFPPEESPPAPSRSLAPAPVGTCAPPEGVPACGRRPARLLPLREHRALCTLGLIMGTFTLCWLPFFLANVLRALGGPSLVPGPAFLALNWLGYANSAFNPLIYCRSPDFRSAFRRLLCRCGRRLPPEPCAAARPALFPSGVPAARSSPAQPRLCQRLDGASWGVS

hSERT = hSERT (Homo sapiens, UniProt P31645); assay: biochemical; format: binding
[5] = target: rat brain benzodiazepine receptor; assay: PDSP binding, rat brain benzodiazepine receptor; conditions: read-out: rat brain benzodiazepine receptor, Ki

Sequence of 5HT2B serotonin receptor (P41595 whole entry): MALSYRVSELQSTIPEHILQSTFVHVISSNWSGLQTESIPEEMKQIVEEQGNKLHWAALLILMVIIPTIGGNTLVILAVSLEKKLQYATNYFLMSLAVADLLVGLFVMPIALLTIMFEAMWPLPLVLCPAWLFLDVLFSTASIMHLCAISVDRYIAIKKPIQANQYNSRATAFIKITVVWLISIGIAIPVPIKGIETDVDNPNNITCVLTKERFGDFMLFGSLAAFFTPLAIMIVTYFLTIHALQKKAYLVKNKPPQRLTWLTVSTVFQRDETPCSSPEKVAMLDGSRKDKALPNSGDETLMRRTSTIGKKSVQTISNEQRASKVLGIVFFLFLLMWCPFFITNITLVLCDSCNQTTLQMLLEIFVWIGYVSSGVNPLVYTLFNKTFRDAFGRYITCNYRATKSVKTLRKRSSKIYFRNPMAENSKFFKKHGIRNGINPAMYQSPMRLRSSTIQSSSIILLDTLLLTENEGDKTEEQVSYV

Compound | Ki (5HT2B serotonin receptor) | Ki (hA3AR) | DAT, inhibition, % of control at 10 μM (hDAT) | Ki (rat kidney TSPO) | Ki (5HT2A serotonin receptor) | Ki (MOR) | Ki (KOR [1]) | Ki [4] | Ki (DOR) | Ki (hA1AR) | Ki (rat σ2 receptor) | also measured
CCOC(=O)[C@@]12C[C@@H]1[C@@H](n1ccc3c(NCCc4ccccc4)nc(C#Cc4ccccc4)nc31)[C@H](O)[C@@H]2O [compound 43, Ethyl(1S,2R,3S,4R,5S)-2,3-dihydroxy-4-(4-(phenethylamino)-2-(phenylethynyl)-7H-pyrrolo[2,3-d]pyrimidin-7-yl)bicyclo[3.1.0]hexane-1-carboxylate] |  | 0.483 ± 0.062 µM | 21% | 0.48 ± 0.2 µM |  | 1.77 ± 0.54 µM | 0.207 ± 0.021 µM | 0.51 µM | 0.627 ± 0.178 µM |  |  | inhibition of agonist 98 in βarrestin2 assay (KOR [2]; 1 μM 98): did not inhibit; βarrestin2 recruitment, agonist effect relative to full agonist 98 (KOR [2]; agonist mode, highest concentrations): 30 ± 4.6%; inhibition of agonist 98 in cAMP assay (KOR [3]; 100 nM 98): did not inhibit; inhibition at 30 µM (KOR [3]; CHO, read-out: inhibition of cAMP accumulation, % inhibition at 30 μM): 23%; inhibition at 10 µM (hA2AAR): < 10%; inhibition at 10 µM (hA1AR; read-out: binding inhibition at hA1AR (% at 10 μM)): 26%
CNC(=O)[C@@]12C[C@@H]1[C@@H](n1cnc3c(NCc4cccc(Cl)c4)nc(C#Cc4ccccc4)nc31)[C@H](O)[C@@H]2O [compound 6] | 2.96 ± 0.6 µM |  | 7% | 2.65 ± 0.29 µM |  |  |  | 6.3 µM |  |  | 1.54 µM | Ki (β3 adrenergic receptor): 2.6 µM; DOR, inhibition of radioligand binding at 10 μM (class) (DOR; Table 1): ^e (30–50% inhibition of radioligand binding at 10 μM)
CCOC(=O)[C@@]12C[C@@H]1[C@@H](n1ccc3c(NC)nc(I)nc31)[C@@H]1OC(C)(C)O[C@@H]12 [compound 73, Ethyl(3aR,3bS,4aS,5R,5aS)-5-(2-iodo-4-(methylamino)-7H-pyrrolo[2,3-d]pyrimidin-7-yl)-2,2-dimethyltetrahydrocyclopropa[3,4]cyclopenta[1,2-d][1,3]dioxole-3b(3aH)-carboxylate] |  | 4.05 ± 0.74 µM | –39% | > 10 µM |  | 7.6 µM | 0.276 ± 0.065 µM |  | > 10 µM | 1.11 µM |  | Ki (hSERT): 6.58 µM
O[C@@H]1[C@H](O)[C@@H]2C[C@@H]2[C@H]1n1ccc2c(NC(C3CC3)C3CC3)nc(C#Cc3ccc(Br)s3)nc21 [compound 57, (1R,2R,3S,4R,5S)-4-(2-((5-Bromothiophen-2-yl)ethynyl)-4-((dicyclopropylmethyl)amino)-7H-pyrrolo[2,3-d]pyrimidin-7-yl)bicyclo[3.1.0]hexane-2,3-diol] |  | 2.44 ± 0.43 µM |  |  | 4.34 ± 1.74 µM | > 10 µM | 3.02 ± 0.09 µM |  | > 10 µM |  | 6.92 µM | Ki [5]: 0.118 µM

Further lines, with some results ahead:

Ki (5HT2B serotonin receptor) | Ki (hA3AR) | DAT, inhibition, % of control at 10 μM (hDAT) | Ki (rat kidney TSPO) | Ki (5HT2A serotonin receptor) | Ki (MOR) | Ki (KOR [1]) | Ki [4] | Ki (DOR) | Ki (hA1AR) | Ki (rat σ2 receptor) | Compound | also measured
1.78 ± 0.28 µM | 0.0473 ± 0.0189 µM | –354% | 3.39 ± 0.64 µM | 1.3 ± 0.29 µM |  |  |  |  |  |  | CCOC(=O)[C@@]12C[C@@H]1[C@@H](n1cnc3c(NC)nc(C#Cc4ccc(Cl)s4)cc31)[C@H](O)[C@@H]2O [compound 27] | Ki (5HT2C serotonin receptor): 0.4 µM; MOR, inhibition of radioligand binding at 10 μM (class) (MOR; Table 2, 10 μM): ^d (<30% inhibition of radioligand binding at 10 μM); KOR binding inhibition at 10 μM (KOR [1]; 10 μM): < 10%; KOR, inhibition of radioligand binding at 10 μM (class) (KOR [1]; Table 2, 10 μM): ^d (<30% inhibition of radioligand binding at 10 μM); Ki (muscarinic M5 receptor): 3.85 µM; DOR, inhibition of radioligand binding at 10 μM (class) (DOR; Table 2): ^d (<30% inhibition of radioligand binding at 10 μM)
3.06 ± 0.17 µM | 0.217 ± 0.065 µM |  | 2.12 ± 0.23 µM |  | 4.02 ± 0.89 µM | 1.37 ± 0.18 µM |  | 3.66 ± 1.33 µM | 1.3 µM |  | O[C@@H]1[C@H](O)[C@@H]2C[C@@H]2[C@H]1n1ccc2c(NCCc3ccccc3)nc(C#Cc3ccccc3)nc21 [compound 55, (1R,2R,3S,4R,5S)-4-(4-(Phenethylamino)-2-(phenylethynyl)-7H-pyrrolo[2,3-d]pyrimidin-7-yl)bicyclo[3.1.0]hexane-2,3-diol] | reduction of hA3AR binding affinity by 7-deaza modification (hA3AR; 28 vs 24, 54 vs 49, 55 vs 51): 11 fold; Ki (muscarinic M1 receptor): 6.97 µM
